{"source": "patent US7335186B2", "about": "(priority 1998, dated 2008)", "details": "30 mg per ml solutions"}
{"smiles": "CN1CC[C@]23c4c5ccc(O)c4O[C@H]2[C@@H](O)C=C[C@H]3[C@H]1C5.O=S(=O)(O)O", "note": "[Morphine sulphate]", "values": [{"measurement": "effectiveness of nasal solution", "result": "effective"}]}
